In PubChem BioAssay (NCI):
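Compound exposure: 48 hours, 5 concentrations, 96-well plates. At the GI50, growth is halved. TGI: concentration producing complete growth inhibition.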

Key:
Experiment in all cases: inhibition of tumour cell growth, NCI panel, 48 h
[1] = tested on: SK-OV-3 ovarian
[2] = tested on: SF-268 CNS
[3] = tested on: M14 melanoma
[4] = tested on: UO-31 renal
[5] = tested on: CCRF-CEM leukemia
[6] = tested on: A498 renal
[7] = tested on: RPMI-8226 leukemia
[8] = tested on: K-562 leukemia
[9] = tested on: OVCAR-8 ovarian
[10] = tested on: MDA-MB-231 breast

SMILES	TGI [1] [µM]	TGI [2] [µM]	TGI [3] [µM]	TGI [4] [µM]	TGI [5] [µM]	TGI [6] [µM]	TGI [7] [µM]	TGI [8] [µM]	TGI [9] [µM]	GI50 [2] [µM]	GI50 [3] [µM]	GI50 [7] [µM]	GI50 [8] [µM]	GI50 [9] [µM]	GI50 [1] [µM]	GI50 [4] [µM]	GI50 [10] [µM]	TGI [10] [µM]	GI50 [6] [µM]	GI50 [5] [µM]
CC(=O)O/N=C(Cl)/C(Cl)=N/OC(C)=O	> 100	> 100	> 100	> 100	> 100	> 100	> 100	> 100	> 100											
Cn1nc(-c2ccccc2)c(C(=O)/C=C/c2ccc(F)cc2)c(N2CCOCC2)c1=O	> 100	38.2	48.8	25.6	49.2	32	23.2	53.2	> 100											
COC(=O)C1=C(O)[C@H](C(=O)OC)[C@]2(O)[C@@H](C(=O)OC)[C@H]1C[C@@H](c1ccc(OC(=O)/C=C/c3ccco3)cc1)[C@@H]2C(=O)OC		> 100	23.2				57.5	> 100	> 100	40.8	10.7	0.293	19.7	42.4						
COc1cc2c(cc1OC)c1c(OC)c(OC)cc3c1c1c2sc(=S)n1CC3	> 100	> 100	35.1	> 100	> 100	> 100	> 100	> 100	> 100											
N#Cc1cc(NC(=O)c2ccccc2)c(=O)n2c1[nH]c1ccccc12	90.4	> 100	76.9	42.9	> 100	85.8	38.3	> 100	> 100											
CCCCCCN(C)Cc1ccc(OCCOc2ccc(CN(C)CCCCCC)cc2)cc1	3.09	11.8	1.83	5.01		3.17	25.4	> 100	3.16	2.59	0.448	1.62	0.452	1.41	1.64	1.04	1.22	2.84	1.24	
C[C@@H]1CC[C@@H]2[C@@H](C)C[C@H]3[C@@H]4C(C)(C)OC(=O)[C@]4(C)C(=O)[C@@]23C1=O	> 100	> 100	> 100	> 100	> 100		> 100	> 100	> 100							> 100	> 100	> 100		
COc1ccc(NC(=O)CCc2cc(C(C)(C)C)n[nH]2)cc1	> 100	> 100	> 100	> 100	> 100	> 100	> 100	> 100	> 100											
C=C1C(=O)OC2C1C(OC(=O)/C(C)=C\C)CC1(CO1)C1C(O)C=C(C)C21O (stereo not drawn)	30.5	17.4	7.58	22.2	> 100	17.7	22.2	> 100	6.03											
Cc1cc(C)nc(NS(=O)(=O)c2ccc(NC(=O)c3ccc(Cl)c4c(Nc5ccc(S(=O)(=O)N=C(N)N)cc5)c5ccccc5nc34)cc2)n1	> 100	> 100	> 100	> 100		> 100	> 100	> 100	> 100											
O=C(Nc1cccnc1)c1ccc2ccc3ccc(C(=O)Nc4cccnc4)nc3c2n1		> 100	> 100	> 100	> 100	0.553	> 100	> 100	> 100	0.225	0.0799	0.0876	0.0526	0.231		> 100	0.226	> 100	0.214	0.169
Cc1ccc(/C=C(\C#N)c2ccccc2)cc1	> 100	> 100	> 100	> 100	> 100	> 100	> 100	> 100	> 100											
NNC(=O)N/N=C1\C(=O)N(c2nccs2)C(=O)C(=O)C1c1nc2ccccc2s1 (stereo not drawn)	> 100	> 100	> 100	> 100			> 100		> 100											
Cc1nc(Nc2ccccc2)sc1C(=O)CC(=O)C(=O)NC12CC3CC(CC(C3)C1)C2	> 100	> 100	> 100	> 100	> 100			> 100	> 100											
CN(C)CCNC(=O)c1cccc2ncc(-c3ccccc3)nc12	82.6	29.4	27.2	> 67.8	56.8	31.4		61.9	> 93											
CCCCCCCCCCCCCC(=O)OCC1OC(n2cc(F)c(=O)[nH]c2=O)C(N)C(OC(=O)CCCCCCCCCCCCC)C1O (stereo not drawn)	> 100	> 100	> 100	> 100		> 100	> 100	> 100	> 100											
O=C(Nc1cccc(Cl)c1)c1cc(N=Nc2ccc([N+](=O)[O-])cc2Cl)ccc1O	6.63	11.4	12.1	6.08	5.81	4.51		4.72	18	2.22	3.18		1.95	3.04	1.94	2.16	2.03	5.27	1.94	2.16
CC(=O)C1CCC2C3CC=C4CC(SC(=N)N)CCC4(C)C3CCC12C (stereo not drawn)	18	16.1	2.81	7.54	4.26	3.73	3.33			3.11	1.46	1.41			4.19	2.36			1.19	1.79
CN(C)CCC1(C2=CCCC2)CC/C(=C\c2ccccc2Cl)C1=O (stereo not drawn)		28.7	26.8	20.1	29	28.4	> 100	14.5	29.3											
CCOC(=O)C1SC(=Nc2ccc(Cl)cc2C)N=C1C (stereo not drawn)		94.5	35.3	39.9		98.1		51.3	> 100											
